Reference: US6355644B1, “Benzylpiperazinyl-indolinylethanones” (Neurogen Corporation, priority 1999, dated 2002)

Key:
dopamine D2 receptor = dopamine D2 receptor (Chlorocebus aethiops, UniProt P52702); test: D2 receptor binding assay (3H-YM 09151-2 displacement); conditions: CHO cells recombinantly expressing primate D2; 0.1 nM 3H-YM 09151-2; 25° C.
Protocol: (§1) Determination of D2 and D4 Receptor Binding Activity
(§2) The following assay is used for determining the binding affinity of compounds to dopamine D4 and D2 receptors.
(§3) Pellets of Chinese hamster ovary (CHO) cells containing recombinantly expressing primate D2, human D4 or […] receptors are used for the assays. The sample is homogenized in 100 volumes (w/vol) of 0.05 M Tris HCl buffer containing 120 mM NaCl, 5 mM MgCl2 and 1 mM EDTA at 4° C. and pH 7.4. The sample is then centrifuged at 30,000×g, resuspended and rehomogenized. The sample is then recentrifuged at 30,000×g, the supernatant is removed and the final tissue sample is frozen until it is needed. The tissue is resuspended 1:20 (wt/vol) in 0.05 M Tris HCl buffer containing 120 mM NaCl.

dopamine D4 receptor = molecular target: T1, dopamine D4 receptor (Homo sapiens, UniProt P21917); test: D4 receptor binding assay (3H-YM 09151-2 displacement); conditions: CHO cells recombinantly expressing human D4; 0.1 nM 3H-YM 09151-2; 25° C.
T1 sequence (P21917 1-419): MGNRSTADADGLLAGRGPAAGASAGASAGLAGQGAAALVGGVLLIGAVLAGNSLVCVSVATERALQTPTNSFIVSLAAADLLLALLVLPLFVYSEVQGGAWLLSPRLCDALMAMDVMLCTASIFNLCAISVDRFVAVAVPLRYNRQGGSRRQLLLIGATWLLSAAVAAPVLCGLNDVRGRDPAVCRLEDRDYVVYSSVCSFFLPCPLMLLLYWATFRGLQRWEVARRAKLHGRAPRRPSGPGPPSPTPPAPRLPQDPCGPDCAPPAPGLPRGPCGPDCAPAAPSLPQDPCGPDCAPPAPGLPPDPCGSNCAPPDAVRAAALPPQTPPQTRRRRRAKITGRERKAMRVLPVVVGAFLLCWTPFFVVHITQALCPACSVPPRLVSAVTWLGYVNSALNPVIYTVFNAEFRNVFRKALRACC
Protocol: as §1, §2, §3

Sequence of dopamine D2 receptor (P52702 whole entry): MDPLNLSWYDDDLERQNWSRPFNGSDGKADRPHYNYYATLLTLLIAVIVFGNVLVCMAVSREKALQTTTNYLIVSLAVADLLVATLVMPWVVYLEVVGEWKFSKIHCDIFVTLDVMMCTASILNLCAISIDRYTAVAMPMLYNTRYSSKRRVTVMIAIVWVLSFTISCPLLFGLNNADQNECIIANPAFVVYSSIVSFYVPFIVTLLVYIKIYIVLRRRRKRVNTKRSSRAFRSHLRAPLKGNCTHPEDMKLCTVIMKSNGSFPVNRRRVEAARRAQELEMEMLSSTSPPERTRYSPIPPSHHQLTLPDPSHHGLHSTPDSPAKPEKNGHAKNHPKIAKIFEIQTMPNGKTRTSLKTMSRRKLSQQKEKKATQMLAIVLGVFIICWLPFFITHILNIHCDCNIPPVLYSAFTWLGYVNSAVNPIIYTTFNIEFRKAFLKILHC

| SMILES | Ki (dopamine D2 receptor) [nM] | Ki (dopamine D4 receptor) [nM] |
| --- | --- | --- |
| COc1ccc(Cl)cc1CN1CCN(CC(=O)N2c3ccccc3C(C)C2C)CC1 (centres unmarked) [Compound 1e] | 128 | 22 |
| O=C(CN1CCN(Cc2ccc(Cl)cc2)CC1)N1c2ccccc2CC1CO (centres unmarked) [Compound 1j] | 3210 |  |
| Cc1ccc(CN2CCN(CC(=O)N3c4ccccc4[C@H]4CCCC[C@H]43)CC2)cc1 (relative stereo) [Compound 1o, 1-[(4b,8a-cis-5,6,7,8,9,4b,8a-heptahydro-4aH-carbazol-9-yl)ethyl]-2-{4-[(4-methylphenyl)methyl]piperazinyl}ethan-1-one] | 200 | 11 |
| O=C(CN1CCN(Cc2ccc(Cl)cc2)CC1)N1c2ccccc2C[C@H]1CF [Compound 1m] | 1100 |  |

Next, values leading:

| Ki (dopamine D2 receptor) [nM] | Ki (dopamine D4 receptor) [nM] | SMILES |
| --- | --- | --- |
| 473 | 70 | Cc1ccc(CN2CCN(CC(=O)N3c4ccccc4[C@H](C)[C@@H]3C)CC2)cc1 [Compound 1d] |
|  | 5 | C=C[C@@H]1Cc2ccccc2N1C(=O)CN1CCN(Cc2ccc(Cl)cc2)CC1 [Compound 1l] |
| 185 | 2 | Cc1ccc(CN2CCN(CC(=O)N3c4ccccc4[C@@H](C)[C@H]3C)CC2)cc1 [Compound 1c] |
|  | 5 | COC(=O)C1Cc2ccccc2N1C(=O)CN1CCN(Cc2ccc(Cl)cc2)CC1 (centres unmarked) [Compound 1g] |
| 2640 | 93 | Cc1ccc(CN2CCN(CC(=O)N3CC(C)c4ccccc43)CC2)cc1 (centres unmarked) [Compound 1b] |
